Consider five compounds from PMC9117288, “Origins of glycan selectivity in streptococcal Siglec-like adhesins suggest mechanisms of receptor adaptation” (Nature Communications, 2022).

The structures appear in SMILES notation. Values after ≈ are worked out from the molar mass of the structure shown. Where two headings read alike, the source gives them in different places.

The target of assay [1] is T1, SLBRHsa (Streptococcus gordonii, UniProt A8AWU7). More on the design: gene hsa; ELISA: GST fusion (pGEX-3X); crystals: His6-MBP tag cleaved with thrombin; E. coli. The conditions noted are these: binder.
T1 sequence (A8AWU7 220-453): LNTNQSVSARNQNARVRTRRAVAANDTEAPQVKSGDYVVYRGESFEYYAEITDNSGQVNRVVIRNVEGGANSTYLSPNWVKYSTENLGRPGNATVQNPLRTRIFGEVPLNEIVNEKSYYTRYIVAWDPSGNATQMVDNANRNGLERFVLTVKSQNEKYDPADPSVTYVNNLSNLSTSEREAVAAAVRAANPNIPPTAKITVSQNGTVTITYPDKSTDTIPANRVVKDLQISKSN
The next assay relates to SLBRUB10712. In words: ELISA, immobilized GST-SLBR. Further details: species or system Streptococcus gordonii. Conditions: labelled compound (biotinylated glycan); 500 nM immobilized GST-SLBR.
The test system of a further assay is SLBRSK678. As to the kind of experiment: ELISA, immobilized GST-SLBR. Further details: species or system Streptococcus sanguinis. The conditions noted are these: labelled compound (biotinylated glycan); 500 nM immobilized GST-SLBR.
Assay [2] addresses T2, SLBRGspB (Streptococcus gordonii, UniProt Q939N5).
T2 construct: gene gspB
In words: ELISA, immobilized GST-SLBR. Type of assay: binding. Conditions: labelled compound (biotinylated glycan).

The target in assay [3] is T2, SLBRGspB. More on the design: ELISA, binding of biotinylated glycans to immobilized GST-SLBR (500 nM), absorbance at 450 nm. The conditions noted are these: biotinylated glycan, binder.
The target of assay [4] is T1, SLBRHsa. The class given is binding. More on the design: gene hsa. Conditions: labelled compound (biotinylated glycan); 500 nM immobilized GST-SLBR.

T2 sequence (Q939N5 245-604): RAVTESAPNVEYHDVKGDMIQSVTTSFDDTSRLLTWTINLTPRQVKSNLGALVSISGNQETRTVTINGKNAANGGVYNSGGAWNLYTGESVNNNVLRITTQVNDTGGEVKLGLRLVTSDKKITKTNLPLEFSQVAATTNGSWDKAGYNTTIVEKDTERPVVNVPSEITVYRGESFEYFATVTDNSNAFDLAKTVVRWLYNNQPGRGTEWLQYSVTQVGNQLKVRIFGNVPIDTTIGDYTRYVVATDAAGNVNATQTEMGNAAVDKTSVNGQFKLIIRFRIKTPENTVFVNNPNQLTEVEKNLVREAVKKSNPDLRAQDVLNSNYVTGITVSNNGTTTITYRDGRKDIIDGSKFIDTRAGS

Take `CC(=O)N[C@H]1[C@H]([C@H](O)[C@H](O)CO)O[C@@](O[C@H]2[C@@H](O)[C@@H](CO)O[C@@H](O[C@H]3[C@H](O[C@@H]4O[C@@H](C)[C@@H](O)[C@@H](O)[C@@H]4O)[C@@H](NC(C)=O)C(O)O[C@@H]3COS(=O)(=O)O)[C@@H]2O)(C(=O)O)C[C@@H]1O` (stereo partly shown) [6-O-sulfo-sialyl Lewis X]: the figures for the EC50 at SLBRHsa [1] (read-out: 6S-sLe^X), in the assay with SLBRUB10712 and in the assay with SLBRSK678 were > 5.55 µM, 0.14 ± 0.10 µg/mL (≈ 0.155 µM) and 0.63 ± 0.36 µg/mL (≈ 0.699 µM), respectively.

Consider `CC(=O)N[C@H]1[C@H]([C@H](O)[C@H](O)CO)O[C@@](O[C@H]2[C@@H](O)[C@@H](CO)O[C@@H](O[C@@H]([C@H](O[C@@H]3O[C@@H](C)[C@@H](O)[C@@H](O)[C@@H]3O)[C@H](C=O)NC(C)=O)[C@H](O)CO)[C@@H]2O)(C(=O)O)C[C@@H]1O` [sLe^X, sialyl Lewis X], for which, on SLBRHsa [1] (read-out: sLe^X), the EC50 was > 6.09 µM.

On to `CC(=O)N[C@H]1[C@H]([C@H](O)[C@H](O)CO)O[C@@](O[C@H]2[C@@H](O)[C@@H](CO)O[C@@H](O[C@H]3[C@@H](O)[C@@H](CO)OC(O)[C@@H]3NC(C)=O)[C@@H]2O)(C(=O)O)C[C@@H]1O` (stereo partly shown) [sialyl-T antigen], for which the “ELISA, immobilized GST-SLBR” value on SLBRGspB [2] was “recapitulated here by ELISA showing concentration-dependent binding”. In addition, the EC50 at SLBRGspB [3] (read-out: sTa) was 0.119 µM; at SLBRHsa [4], 178 nM.

In the case of `CC(=O)N[C@H]1[C@H]([C@H](O)[C@H](O)CO)O[C@@](O[C@H]2[C@@H](O)[C@@H](CO)O[C@@H](O[C@H]3[C@H](O)[C@@H](CO)OC(O)[C@@H]3NC(C)=O)[C@@H]2O)(C(=O)O)C[C@@H]1O` (stereo partly shown) [sialyl Lewis^C], the EC50 on SLBRGspB [3] (read-out: sLe^C) is > 7.41 µM; at SLBRHsa [4], 993 nM.

Regarding `CC(=O)N[C@H]1[C@H]([C@H](O)[C@H](O)CO)O[C@@](O[C@H]2[C@@H](O)[C@@H](CO)O[C@@H](O[C@H]3[C@H](O)[C@@H](NC(C)=O)C(O)O[C@@H]3CO)[C@@H]2O)(C(=O)O)C[C@@H]1O` (stereo partly shown) [3’-sialyl-N-acetyllactosamine], the EC50 is > 7.41 µM at SLBRGspB [3] (read-out: 3'sLn), 2390 nM at SLBRHsa [4], 0.13 ± 0.19 µg/mL (≈ 0.193 µM) with SLBRUB10712 and 0.90 ± 0.51 µg/mL (≈ 1.33 µM) with SLBRSK678.
